According to the supplement of paper PMC10307832:

Columns and labels:
Experiment in all cases: relative viability (nuclei count vs DMSO), 5 days (fraction); higher = more cells survive
H3255 = test system: H3255
Outline: (§1)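 Nuclei were stained with Hoechst during a one-step fixation (final 0.05% Triton X-100, 1% formaldehyde, 1 ug/ml Hoechst) carried out 5 days after dosing, then counted on 4× images. The cells, lung cancer lines in 1536-well plates, had been dosed by pin tool the day after seeding with one drug alone or a fixed anchor-drug dose plus five library-drug doses (not always all listed) in √10 steps. Relative viability is the nuclei count in treated wells divided by that in vehicle wells, and each value is the median of duplicate plates.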

NCI-H1650 = test system: NCI-H1650
Outline: as §1

LU99A = test system: LU99A
Outline: as §1

COR-L23 = test system: COR-L23
Outline: as §1

LCLC-97TM1 = test system: LCLC-97TM1
Outline: as §1

PC-14 = test system: PC-14
Outline: as §1

NCI-H460 = test system: NCI-H460
Outline: as §1

PC-3 [JPC-3] = test system: PC-3 [JPC-3]
Outline: as §1

SW 1573 = test system: SW 1573
Outline: as §1

NCI-H1793 = test system: NCI-H1793
Outline: as §1

NCI-H1944 = conditions: first compound 0.04 µM
Outline: as §1

## COc1cc(N2CCC(C(N)=O)CC2)ccc1Nc1nc(N)c(Cl)c(Nc2ccccc2S(=O)(=O)C(C)C)n1 [HG-5-88-01] + CC1(C)CCC(c2ccc(Cl)cc2)=C(CN2CCN(c3ccc(C(=O)NS(=O)(=O)c4ccc(N[C@H](CCN5CCOCC5)CSc5ccccc5)c(S(=O)(=O)C(F)(F)F)c4)cc3)CC2)C1 [Navitoclax] (partner 0.5 µM)
H3255; first compound 0.04 µM
  relative viability: 0.506
H3255; first compound 0.1265 µM
  relative viability: 0.467
H3255; first compound 0.4 µM
  relative viability: 0.428
H3255; first compound 4 µM
  relative viability: 0.138
NCI-H1650; first compound 0.04 µM
  relative viability: 1.54
NCI-H1650; first compound 0.1265 µM
  relative viability: 1.32
NCI-H1650; first compound 0.4 µM
  relative viability: 1.26
NCI-H1650; first compound 1.265 µM
  relative viability: 0.918
NCI-H1650; first compound 4 µM
  relative viability: 1.07
LU99A; first compound 0.04 µM
  relative viability: 0.781
LU99A; first compound 0.1265 µM
  relative viability: 0.96
LU99A; first compound 0.4 µM
  relative viability: 0.75
LU99A; first compound 1.265 µM
  relative viability: 0.764
LU99A; first compound 4 µM
  relative viability: 0.996
COR-L23; first compound 0.04 µM
  relative viability: 0.936
COR-L23; first compound 0.1265 µM
  relative viability: 1
COR-L23; first compound 0.4 µM
  relative viability: 0.998
COR-L23; first compound 1.265 µM
  relative viability: 0.883
COR-L23; first compound 4 µM
  relative viability: 0.98
LCLC-97TM1; first compound 0.04 µM
  relative viability: 0.374
LCLC-97TM1; first compound 0.1265 µM
  relative viability: 0.689
LCLC-97TM1; first compound 0.4 µM
  relative viability: 0.347
LCLC-97TM1; first compound 1.265 µM
  relative viability: 0.296
LCLC-97TM1; first compound 4 µM
  relative viability: 0.321
PC-14; first compound 0.04 µM
  relative viability: 0.953
PC-14; first compound 0.1265 µM
  relative viability: 1.05
PC-14; first compound 0.4 µM
  relative viability: 0.995
PC-14; first compound 1.265 µM
  relative viability: 1.12
PC-14; first compound 4 µM
  relative viability: 0.272
NCI-H460; first compound 0.04 µM
  relative viability: 0.975
NCI-H460; first compound 0.1265 µM
  relative viability: 1.12
NCI-H460; first compound 0.4 µM
  relative viability: 0.901
NCI-H460; first compound 1.265 µM
  relative viability: 1.15
NCI-H460; first compound 4 µM
  relative viability: 1.06
PC-3 [JPC-3]; first compound 0.04 µM
  relative viability: 0.837
PC-3 [JPC-3]; first compound 0.1265 µM
  relative viability: 0.83
PC-3 [JPC-3]; first compound 0.4 µM
  relative viability: 0.841
PC-3 [JPC-3]; first compound 1.265 µM
  relative viability: 0.753
PC-3 [JPC-3]; first compound 4 µM
  relative viability: 0.751
SW 1573; first compound 0.04 µM
  relative viability: 0.952
SW 1573; first compound 0.1265 µM
  relative viability: 1.05
SW 1573; first compound 0.4 µM
  relative viability: 0.9
SW 1573; first compound 1.265 µM
  relative viability: 0.996
SW 1573; first compound 4 µM
  relative viability: 0.863
NCI-H1793; first compound 0.1265 µM
  relative viability: 0.409
NCI-H1793; first compound 0.4 µM
  relative viability: 0.473
NCI-H1793; first compound 1.265 µM
  relative viability: 0.296
NCI-H1793; first compound 4 µM
  relative viability: 0.438
NCI-H1944
  relative viability: 1.03
